{"source": "patent US12065426B2", "about": "“Crystalline form of nilotinib hydrochloride, process for its preparation and pharmaceutical composition containing the same” (Laurus Labs Limited, priority 2018, dated 2024)", "key": {"[1]": {"experiment": "Thermogravimetric analysis (TGA) / loss on drying", "type": "physicochemical", "details": "for Thermogravimetric (weight loss %): 10° C./minute, RT to 80° C.", "procedure": "Thermogravimetry analysis (TGA) data in the present invention was acquired using TA instruments TGA Q500 thermogravimetric analyser with universal Analysis 2000 software using the following conditions; Heating rate: 10° C./min; Temperature range: 28±2° C.-250° C.; Nitrogen flow: 60 mL/minute."}, "[2]": {"details": "from table 22 of U.S. Pat. No. 8,415,363, cited from earlier work"}, "[3]": {"experiment": "Saturation solubility studies in various mediums", "details": "for solubility: 25 °C, thermodynamic from solid", "procedure": "Saturation solubility studies were conducted in various mediums for nilotinib hydrochloride Form L of the present invention and nilotinib hydrochloride monohydrate Form B (U.S. Pat. No. 8,415,363)."}, "[4]": {"experiment": "Variable temperature powder X-ray diffraction (VT-PXRD)", "type": "physicochemical", "details": "25-300° C., heating rate 10° C./mins"}, "[5]": {"experiment": "Chemical and polymorphic stability study at different storage conditions (HPLC, XRD)", "type": "physicochemical", "set-up": "key to 5-Methyl isomer (Imp-4) / 4-Ethyl analogue (Imp-5) / Any unspecified impurity / Total Impurities / Methyl ester impurity (Imp-2) / Acid impurity (Imp-1): ND: Not detected; BDRL: Below disregard limit", "text": "Nilotinib hydrochloride Form L is packed in a transparent Low density polyethylene (LDPE) bag with a strip seal along with nitrogen filling, which is again kept in a second transparent low density polyethylene bag with strip seal. The LDPE bag is kept in to a triple laminated sunlight barrier with heat seal followed by in a high density polyethylene container and well closed.\nAlternatively, Nilotinib hydrochloride Form L is packed in a HM LDPE bag in nitrogen atmosphere, fill the bag with nitrogen and seal it with vacuum sealer. Place this bag in another HM LDPE bag, fill with nitrogen, keep one silica gel packet between two bags and seal the bag with vacuum sealer. Place this in a triple laminated sunlight barrier bag, seal the bag with vacuum sealer; and finally kept it in a HDPE container.\nThe Nilotinib hydrochloride Form L was analysed using High Performance Liquid Chromatography (“HPLC”) with the conditions as tabulated below: […]"}, "[6]": {"experiment": "Dynamic vapour sorption (DVS)", "type": "physicochemical", "procedure": "Dynamic vapour sorption (DVS) data in the present invention was acquired using TA instruments TA Q5000SA Dynamic vapour sorption analyser with Universal Analysis 2000 software under following parameters; Sample was initially equilibrated at 0% RT for 120 mins; humidity range: 10 to 90%; humidity step size: 10%; Equilibration condition: change in mass less than 0.01% within 5 mins."}}, "note": "Read-outs that look alike come from different tables or passages of the source.", "data": [{"smiles": "Cc1cn(-c2cc(NC(=O)c3ccc(C)c(Nc4nccc(-c5cccnc5)n4)c3)cc(C(F)(F)F)c2)cn1.Cl.O", "note": "[Form B, reference compound]", "values": [{"measurement": "Thermogravimetric (weight loss %)", "setting": "[1]", "value": "0.91 (RT to 80° C.) %"}, {"measurement": "Loss on drying", "setting": "[2]; 30° C.-100° C.", "value": 1.00, "unit": "%"}, {"measurement": "Loss on drying", "setting": "[2]; 100° C.-220° C.", "value": 3.02, "unit": "%"}, {"measurement": "Saturation solubility", "setting": "[3]; 0.01N HCl, approximately at 25° C.", "value": 0.08, "unit": "mg/mL"}, {"measurement": "Saturation solubility", "setting": "[3]; 0.1N HCl, approximately at 25° C.", "value": 0.94, "unit": "mg/mL"}, {"measurement": "Saturation solubility", "setting": "[3]; Ethanol, approximately at 25° C.", "value": 3.69, "unit": "mg/mL"}, {"measurement": "Saturation solubility", "setting": "[3]; Isopropanol, approximately at 25° C.", "value": 1.93, "unit": "mg/mL"}, {"measurement": "Saturation solubility", "setting": "[3]; Phosphate buffer, pH 6.8, approximately at 25° C.", "value": "Below detection"}, {"measurement": "Saturation solubility", "setting": "[3]; Water, approximately at 25° C.", "value": 0.17, "unit": "mg/mL"}]}, {"smiles": "Cc1cn(-c2cc(NC(=O)c3ccc(C)c(Nc4nccc(-c5cccnc5)n4)c3)cc(C(F)(F)F)c2)cn1.Cl", "note": "[Form L, 4-methyl-N-[3-(4-methyl-1H-imidazol-1-yl)-5-(trifluoromethyl)phenyl]-3-[[4-(3-pyridinyl)-2-pyrimidinyl]amino]-benzamide hydrochloride]", "values": [{"measurement": "Thermogravimetric (weight loss %)", "setting": "[1]", "value": "1.6 (RT to 80°) %"}, {"measurement": "Loss on drying", "setting": "[1]; 30° C.-100° C.", "value": 2.3, "unit": "%"}, {"measurement": "Loss on drying", "setting": "[1]; 100° C.-220° C.", "value": 7.3, "unit": "%"}, {"measurement": "Temperature up to which characteristic PXRD is retained", "setting": "[4]", "value": "about 140 °C"}, {"measurement": "solubility", "setting": "[3]; 0.01N HCl, simulated gastric fluid", "value": 0.17, "unit": "mg/mL"}, {"measurement": "solubility", "setting": "[3]; 0.1N HCl, simulated gastric fluid", "value": 1.86, "unit": "mg/mL"}, {"measurement": "solubility", "setting": "[3]; ethanol, organic solvent or mixture", "value": 16.3, "unit": "mg/mL"}, {"measurement": "solubility", "setting": "[3]; isopropanol, organic solvent or mixture", "value": 2.74, "unit": "mg/mL"}, {"measurement": "solubility", "setting": "[3]; phosphate buffer, pH 6.8, aqueous buffer", "value": 0.02, "unit": "mg/mL"}, {"measurement": "Solubility compared to Form B", "setting": "[3]; various mediums", "value": "better solubility"}, {"measurement": "solubility", "setting": "[3]; water", "value": 0.16, "unit": "mg/mL"}, {"measurement": "4-Ethyl analogue (Imp-5)", "setting": "[5]; 25 ± 2° C./60 ± 5% RH, 2 month", "value": "BDRL"}, {"measurement": "5-Methyl isomer (Imp-4)", "setting": "[5]; 25 ± 2° C./60 ± 5% RH, 2 month", "value": "BDRL"}, {"measurement": "Any unspecified impurity", "setting": "[5]; 25 ± 2° C./60 ± 5% RH, 2 month", "value": "BDRL"}, {"measurement": "Description", "setting": "[5]; 25 ± 2° C./60 ± 5% RH, 2 month", "value": "Slightly yellow"}, {"measurement": "Solid form by XRD", "setting": "[5]; 25 ± 2° C./60 ± 5% RH, 2 month", "value": "Complies"}, {"measurement": "Total Impurities", "setting": "[5]; 25 ± 2° C./60 ± 5% RH, 2 month", "value": "BDRL"}, {"measurement": "4-Ethyl analogue (Imp-5)", "setting": "[5]; 25 ± 2° C./60 ± 5% RH, Initial", "value": "BDRL"}, {"measurement": "Any unspecified impurity", "setting": "[5]; 25 ± 2° C./60 ± 5% RH, Initial", "value": "BDRL"}, {"measurement": "Description", "setting": "[5]; 25 ± 2° C./60 ± 5% RH, Initial", "value": "Slightly yellow"}, {"measurement": "Solid form by XRD", "setting": "[5]; 25 ± 2° C./60 ± 5% RH, Initial", "value": "Complies"}, {"measurement": "Total Impurities", "setting": "[5]; 25 ± 2° C./60 ± 5% RH, Initial", "value": "BDRL"}, {"measurement": "4-Ethyl analogue (Imp-5)", "setting": "[5]; 40 ± 2° C./75 ± 5% RH, 1 month", "value": "BDRL"}, {"measurement": "5-Methyl isomer (Imp-4)", "setting": "[5]; 40 ± 2° C./75 ± 5% RH, 1 month", "value": "BDRL"}, {"measurement": "Acid impurity (Imp-1)", "setting": "[5]; 40 ± 2° C./75 ± 5% RH, 1 month", "value": "BDRL"}, {"measurement": "Any unspecified impurity", "setting": "[5]; 40 ± 2° C./75 ± 5% RH, 1 month", "value": "BDRL"}, {"measurement": "Description", "setting": "[5]; 40 ± 2° C./75 ± 5% RH, 1 month", "value": "Slightly yellow"}, {"measurement": "Methyl ester impurity (Imp-2)", "setting": "[5]; 40 ± 2° C./75 ± 5% RH, 1 month", "value": "BDRL"}, {"measurement": "Solid form by XRD", "setting": "[5]; 40 ± 2° C./75 ± 5% RH, 1 month", "value": "Complies"}, {"measurement": "Total Impurities", "setting": "[5]; 40 ± 2° C./75 ± 5% RH, 1 month", "value": "BDRL"}, {"measurement": "4-Ethyl analogue (Imp-5)", "setting": "[5]; 40 ± 2° C./75 ± 5% RH, 2 month", "value": "BDRL"}, {"measurement": "5-Methyl isomer (Imp-4)", "setting": "[5]; 40 ± 2° C./75 ± 5% RH, 2 month", "value": "BDRL"}, {"measurement": "Any unspecified impurity", "setting": "[5]; 40 ± 2° C./75 ± 5% RH, 2 month", "value": "BDRL"}, {"measurement": "Description", "setting": "[5]; 40 ± 2° C./75 ± 5% RH, 2 month", "value": "Slightly yellow"}, {"measurement": "Solid form by XRD", "setting": "[5]; 40 ± 2° C./75 ± 5% RH, 2 month", "value": "Complies"}, {"measurement": "Total Impurities", "setting": "[5]; 40 ± 2° C./75 ± 5% RH, 2 month", "value": "BDRL"}, {"measurement": "4-Ethyl analogue (Imp-5)", "setting": "[5]; 40 ± 2° C./75 ± 5% RH, Initial", "value": "BDRL"}, {"measurement": "Any unspecified impurity", "setting": "[5]; 40 ± 2° C./75 ± 5% RH, Initial", "value": "BDRL"}, {"measurement": "Description", "setting": "[5]; 40 ± 2° C./75 ± 5% RH, Initial", "value": "Slightly yellow"}, {"measurement": "Solid form by XRD", "setting": "[5]; 40 ± 2° C./75 ± 5% RH, Initial", "value": "Complies"}, {"measurement": "Total Impurities", "setting": "[5]; 40 ± 2° C./75 ± 5% RH, Initial", "value": "BDRL"}, {"measurement": "Polymorphic and chemical identity on storage", "setting": "[5]; different storage conditions, at least up to two months", "value": "retained the same polymorphic and chemical identity"}, {"measurement": "% Weight change", "setting": "[6]; Adsorption, 10 % RH", "value": 0.5405, "unit": "%"}, {"measurement": "% Weight change", "setting": "[6]; Adsorption, 20 % RH", "value": 0.7918, "unit": "%"}, {"measurement": "% Weight change", "setting": "[6]; Adsorption, 30 % RH", "value": 0.9954, "unit": "%"}, {"measurement": "% Weight change", "setting": "[6]; Adsorption, 40 % RH", "value": 1.170, "unit": "%"}, {"measurement": "% Weight change", "setting": "[6]; Adsorption, 50 % RH", "value": 1.350, "unit": "%"}, {"measurement": "% Weight change", "setting": "[6]; Adsorption, 60 % RH", "value": 1.544, "unit": "%"}, {"measurement": "% Weight change", "setting": "[6]; Adsorption, 70 % RH", "value": 1.904, "unit": "%"}, {"measurement": "% Weight change", "setting": "[6]; Adsorption, 80 % RH", "value": 2.661, "unit": "%"}, {"measurement": "% Weight change", "setting": "[6]; Adsorption, 90 % RH", "value": 5.414, "unit": "%"}, {"measurement": "% Weight change", "setting": "[6]; Desorption, 10 % RH", "value": 1.303, "unit": "%"}, {"measurement": "% Weight change", "setting": "[6]; Desorption, 20 % RH", "value": 1.751, "unit": "%"}, {"measurement": "% Weight change", "setting": "[6]; Desorption, 30 % RH", "value": 2.098, "unit": "%"}, {"measurement": "% Weight change", "setting": "[6]; Desorption, 40 % RH", "value": 2.855, "unit": "%"}, {"measurement": "% Weight change", "setting": "[6]; Desorption, 50 % RH", "value": 4.190, "unit": "%"}, {"measurement": "% Weight change", "setting": "[6]; Desorption, 60 % RH", "value": 4.453, "unit": "%"}, {"measurement": "% Weight change", "setting": "[6]; Desorption, 70 % RH", "value": 4.875, "unit": "%"}, {"measurement": "% Weight change", "setting": "[6]; Desorption, 80 % RH", "value": 5.134, "unit": "%"}, {"measurement": "% Weight change", "setting": "[6]; Desorption, 90 % RH", "value": 5.414, "unit": "%"}, {"measurement": "Water pick up", "setting": "[6]; at 80% RH at RT", "value": "about 2.7%"}, {"measurement": "Maximum absorption of water", "setting": "[6]; at 90% RH", "value": "about 5.4%"}, {"measurement": "Difference in water content between absorption and desorption", "setting": "[6]; between 50% and 60% RH at room temperature", "value": "about 3%"}, {"measurement": "Hygroscopicity", "setting": "[6]; from water pick up at 80% RH at RT", "value": "moderately hygroscopic"}]}]}
